Measured values from US20120208809A1, “9H-PYRROLO[2,3-B: 5,4-C'] DIPYRIDINE AZACARBOLINE DERIVATIVES, PREPARATION THEREOF, AND THERAPEUTIC USE THEREOF” (SANOFI, priority 2009, published 2012).

Key:
Pim-2 = target: T1, Pim-2 (Homo sapiens, UniProt Q9P1W9); experiment: TR-FRET assay of Pim kinase activity (phosphorylation of Bad Ser112), Pim-2; type: biochemical; conditions: ATP 40 μM, read-out: IC50 Pim2
T1 construct: full-length human recombinant His6-labelled Pim-1, Pim-2 or Pim-3 protein; His6; made in house
Description: (§1) In order to determine the inhibition of Pim kinase activity, the compounds of the invention are tested in accordance with a routinely-used in-vitro TR-FRET assay (“Time Resolved-Fluorescence Resonance Energy Transfer”). […] For the assay, the following reagents are used:
(§2) Pim kinase—full-length human recombinant His6-labelled Pim-1, Pim-2 or Pim-3 protein (prepared according to J. Mol. Biol. (2005) 348, 183-193); Bad—full-length human recombinant His6-labelled Bad protein (prepared according to J. Mol. Biol. (2005) 348, 183-193); α-His6-APC—mouse monoclonal antibody conjugated to allophycocyanine SureLight™ directed against the His6 label (Perkin-Elmer, No. AD0059H, Waltham, Mass., United States); α-P˜Bad-Eu—mouse monoclonal antibody (Cell Signaling Technology #9296B, Danvers, Mass., United States) directed against phosphoBad (Ser112) (7E11) labelled on request by Perkin-Elmer with the reagent LANCE™ Eu-W1024.
(§3) The assay is based on the LANCE™ technology from Perkin-Elmer: the Eu-labelled antibody binds to phospho-Ser112 and generates a TR-FRET signal by interaction with the […] antibody directed against His6, bound to the His6 label of Bad. The TR-FRET signal is detected using a SpectraMax M5 plate reader (Molecular Devices) with the following settings: λex=340 nm, λem1=615 nm, λem2=665 nm. The ratio of the fluorescence signal at 665 nm to the fluorescence signal at 615 nm is used as the signal reading for the IC50 (calculations based on the 4-parameter logistic model). The assay is performed in 384-well format; the liquid manipulations are performed using a Beckmann 3000 liquid manipulation station. The test compounds are tested at 10 concentration points in duplicate; the highest concentration of compound is typically equal to 30 μM. The ATP concentration is equal to 40 μM.

Pim-3 = target: T2, Pim-3 (Homo sapiens, UniProt Q86V86); experiment: TR-FRET assay of Pim kinase activity (phosphorylation of Bad Ser112), Pim-3; type: biochemical; conditions: ATP 40 μM, read-out: IC50 Pim3
T2 construct: full-length human recombinant His6-labelled Pim-1, Pim-2 or Pim-3 protein; His6; made in house
Description: as §1, §2, §3

Pim-1 = target: T3, Pim-1 (Homo sapiens, UniProt P11309); experiment: TR-FRET assay of Pim kinase activity (phosphorylation of Bad Ser112), Pim-1; type: biochemical; conditions: ATP 40 μM, read-out: IC50 Pim1
T3 construct: full-length human recombinant His6-labelled Pim-1, Pim-2 or Pim-3 protein; His6; made in house
Description: as §1, §2, §3

CDK1 = CDK1 (Homo sapiens, UniProt P06493); experiment: Biochemical results, IC50 CDK1
PLK1 = PLK1 (Homo sapiens, UniProt P53350); experiment: Biochemical results, IC50 PLK1
PLK1, sequence (P53350 whole entry, species assumed): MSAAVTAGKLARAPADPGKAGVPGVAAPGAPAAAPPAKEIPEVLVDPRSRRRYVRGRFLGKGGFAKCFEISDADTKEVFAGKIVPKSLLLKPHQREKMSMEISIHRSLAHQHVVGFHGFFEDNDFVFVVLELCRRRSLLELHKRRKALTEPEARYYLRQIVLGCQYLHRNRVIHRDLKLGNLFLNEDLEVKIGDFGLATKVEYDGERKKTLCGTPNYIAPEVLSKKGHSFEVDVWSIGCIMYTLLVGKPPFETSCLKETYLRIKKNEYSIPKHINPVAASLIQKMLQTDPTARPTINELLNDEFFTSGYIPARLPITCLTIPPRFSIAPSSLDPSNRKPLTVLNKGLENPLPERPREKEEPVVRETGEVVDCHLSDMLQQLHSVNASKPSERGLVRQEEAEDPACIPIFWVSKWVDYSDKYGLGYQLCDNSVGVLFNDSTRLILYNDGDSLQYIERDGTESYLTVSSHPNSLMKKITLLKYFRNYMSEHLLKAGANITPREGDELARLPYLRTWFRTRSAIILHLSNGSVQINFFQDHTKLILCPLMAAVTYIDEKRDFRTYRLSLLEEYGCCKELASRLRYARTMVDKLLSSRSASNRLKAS

T3 sequence (P11309 whole entry): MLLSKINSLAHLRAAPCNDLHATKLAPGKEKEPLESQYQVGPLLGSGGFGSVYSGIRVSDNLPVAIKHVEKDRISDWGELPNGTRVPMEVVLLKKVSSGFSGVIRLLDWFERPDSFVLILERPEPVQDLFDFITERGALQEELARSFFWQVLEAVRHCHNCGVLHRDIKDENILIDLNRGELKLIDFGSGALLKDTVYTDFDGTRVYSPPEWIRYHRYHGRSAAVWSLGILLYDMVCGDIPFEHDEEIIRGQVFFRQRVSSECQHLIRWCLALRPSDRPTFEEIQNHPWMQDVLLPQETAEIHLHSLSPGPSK
T1 sequence (Q9P1W9 whole entry): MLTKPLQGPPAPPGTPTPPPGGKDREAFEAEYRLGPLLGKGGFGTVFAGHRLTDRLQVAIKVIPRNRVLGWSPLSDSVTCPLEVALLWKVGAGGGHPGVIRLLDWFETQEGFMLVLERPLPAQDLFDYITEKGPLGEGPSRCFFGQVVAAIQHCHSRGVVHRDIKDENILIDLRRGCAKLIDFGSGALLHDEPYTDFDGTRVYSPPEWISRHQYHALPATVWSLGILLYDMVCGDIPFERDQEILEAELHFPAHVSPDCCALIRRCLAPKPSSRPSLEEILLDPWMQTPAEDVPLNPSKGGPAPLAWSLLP
CDK1, sequence (P06493 whole entry, species assumed): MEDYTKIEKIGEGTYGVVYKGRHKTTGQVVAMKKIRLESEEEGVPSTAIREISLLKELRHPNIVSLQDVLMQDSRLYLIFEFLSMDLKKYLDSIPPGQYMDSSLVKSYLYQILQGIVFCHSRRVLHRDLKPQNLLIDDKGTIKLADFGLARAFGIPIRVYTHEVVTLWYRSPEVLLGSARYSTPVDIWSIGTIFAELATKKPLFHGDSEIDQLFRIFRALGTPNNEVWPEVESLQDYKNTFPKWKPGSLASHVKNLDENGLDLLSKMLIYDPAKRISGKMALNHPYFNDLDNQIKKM
CDK1, sequence (P14635 whole entry partner, species assumed): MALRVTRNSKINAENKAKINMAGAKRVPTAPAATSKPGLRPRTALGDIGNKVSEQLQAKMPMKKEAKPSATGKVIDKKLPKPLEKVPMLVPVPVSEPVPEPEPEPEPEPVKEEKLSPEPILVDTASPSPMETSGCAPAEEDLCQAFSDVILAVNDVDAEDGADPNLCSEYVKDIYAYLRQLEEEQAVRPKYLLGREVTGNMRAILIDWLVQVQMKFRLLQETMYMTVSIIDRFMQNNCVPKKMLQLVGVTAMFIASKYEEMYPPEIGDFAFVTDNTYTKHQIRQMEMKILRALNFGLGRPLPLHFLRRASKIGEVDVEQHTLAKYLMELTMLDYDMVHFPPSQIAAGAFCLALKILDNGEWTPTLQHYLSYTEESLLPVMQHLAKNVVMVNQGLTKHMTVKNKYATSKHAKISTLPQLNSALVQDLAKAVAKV

Row | Compound | IC50 (Pim-2) [nM] | IC50 (Pim-3) [nM] | IC50 (Pim-1) [nM] | IC50 (CDK1) [nM] | IC50 (PLK1) [nM]
1 | O=C(c1ccc(-c2c(F)cnc3[nH]c4cnc(-c5cccnc5)cc4c23)cc1)N1CCOCC1 [Example 13, {4-[3-fluoro-6-(pyridin-3-yl)-9H-pyrrolo[2,3-b:5,4-c′]dipyridin-4-yl]phenyl}(morpholin-4-yl)methanone] | 1000 to 5000 | 100 to 1000 | < 100 |  | 
2 | COCCNC(=O)c1ccc(-c2c(F)cnc3[nH]c4cnc(-c5cccnc5)cc4c23)cc1 [Example 14, 4-[3-fluoro-6-(pyridin-3-yl)-9H-pyrrolo[2,3-b:5,4-c′]dipyridin-4-yl]-N-(2-methoxyethyl)benzamide] | 1000 to 5000 | 100 to 1000 | < 100 |  | 
3 | O=C(c1cccc(-c2c(F)cnc3[nH]c4cnc(-c5cccnc5)cc4c23)c1)N1CCOCC1 [Example 15, {3-[3-fluoro-6-(pyridin-3-yl)-9H-pyrrolo[2,3-b:5,4-c′]dipyridin-4-yl]phenyl}(morpholin-4-yl)methanone] | > 5000 | 1000 to 5000 | 100 to 1000 |  | 
4 | CN1CCN(C(=O)c2ccc(-c3c(F)cnc4[nH]c5cnc(-c6cccnc6)cc5c34)cc2)CC1 [Example 16, {4-[3-fluoro-6-(pyridin-3-yl)-9H-pyrrolo[2,3-b:5,4-c′]dipyridin-4-yl]phenyl}(4-methylpiperazin-1-yl)methanone] | 1000 to 5000 | 100 to 1000 | < 100 |  | 
5 | COCCCNC(=O)c1ccc(-c2c(F)cnc3[nH]c4cnc(-c5cccnc5)cc4c23)cc1 [Example 17, 4-[3-fluoro-6-(pyridin-3-yl)-9H-pyrrolo[2,3-b:5,4-c′]dipyridin-4-yl]-N-(3-methoxypropyl)benzamide] | 1000 to 5000 | 100 to 1000 | < 100 |  | 
6 | O=C(NCCNCCO)c1ccc(-c2c(F)cnc3[nH]c4cnc(-c5cccnc5)cc4c23)cc1 [Example 27, 4-[3-fluoro-6-(pyridin-3-yl)-9H-pyrrolo[2,3-b:5,4-c′]dipyridin-4-yl]-N-{2-[(2-hydroxyethyl)amino]ethyl}benzamide] | < 100 | < 100 | < 100 | 1000 to 5000 | 100 to 1000
7 | O=C(NCc1nnn[nH]1)c1ccc(-c2c(F)cnc3[nH]c4cnc(-c5cccnc5)cc4c23)cc1 [Example 45, 4-[3-fluoro-6-(pyridin-3-yl)-9H-pyrrolo[2,3-b:5,4-c′]dipyridin-4-yl]-N-(1H-tetrazol-5-ylmethyl)benzamide] | > 5000 | 100 to 1000 | 100 to 1000 | 100 to 1000 | < 100
8 | CN(C)[C@@H]1CCN(C(=O)c2ccc(-c3c(F)cnc4[nH]c5cnc(-c6cccnc6)cc5c34)cc2)C1 [Example 46, [(3R)-3-(dimethylamino)pyrrolidin-1-yl]{4-[3-fluoro-6-(pyridin-3-yl)-9H-pyrrolo[2,3-b:5,4-c′]dipyridin-4-yl]phenyl}methanone] | 1000 to 5000 | < 100 | < 100 | 100 to 1000 | 100 to 1000
9 | CN1C[C@@H]2CCN(C(=O)c3ccc(-c4c(F)cnc5[nH]c6cnc(-c7cccnc7)cc6c45)cc3)[C@@H]2C1 [Example 47, {4-[3-fluoro-6-(pyridin-3-yl)-9H-pyrrolo[2,3-b:5,4-c′]dipyridin-4-yl]phenyl}[(3aS,6aS)-5-methylhexahydropyrrolo[3,4-b]pyrrol-1(2H)-yl]methanone] | < 100 | < 100 | < 100 | 100 to 1000 | 100 to 1000
10 | CC(=O)NCCNC(=O)c1ccc(-c2c(F)cnc3[nH]c4cnc(-c5cccnc5)cc4c23)cc1 [Example 48, N-[2-(acetylamino)ethyl]-4-[3-fluoro-6-(pyridin-3-yl)-9H-pyrrolo[2,3-b:5,4-c′]dipyridin-4-yl]benzamide] | 1000 to 5000 | 100 to 1000 | < 100 | 100 to 1000 | < 100
11 | O=C(NCCCN1CCCC1=O)c1ccc(-c2c(F)cnc3[nH]c4cnc(-c5cccnc5)cc4c23)cc1 [Example 49, 4-[3-fiuoro-6-(pyridin-3-yl)-9H-pyrrolo[2,3-b:5,4-c′]dipyridin-4-yl]-N-[3-(2-oxopyrrolidin-1-yl)propyl]benzamide] | > 5000 | 100 to 1000 | 100 to 1000 | 1000 to 5000 | 100 to 1000
12 | O=C(NCCNc1ccccc1)c1ccc(-c2c(F)cnc3[nH]c4cnc(-c5cccnc5)cc4c23)cc1 [Example 50, 4-[3-fluoro-6-(pyridin-3-yl)-9H-pyrrolo[2,3-b:5,4-c′]dipyridin-4-yl]-N-[2-(phenylamino)ethyl]benzamide] | > 5000 | 100 to 1000 | 100 to 1000 | 100 to 1000 | < 100
13 | CCN1CCCC1CNC(=O)c1ccc(-c2c(F)cnc3[nH]c4cnc(-c5cccnc5)cc4c23)cc1 (stereo not shown) [Example 51, N-[(1-ethylpyrrolidin-2-yl)methyl]-4-[3-fluoro-6-(pyridin-3-yl)-9H-pyrrolo[2,3-b:5,4-c′]dipyridin-4-yl]benzamide] | 100 to 1000 | < 100 | < 100 | 1000 to 5000 | 100 to 1000
14 | CCN1CCC[C@H]1CNC(=O)c1ccc(-c2c(F)cnc3[nH]c4cnc(-c5cccnc5)cc4c23)cc1 [Example 53, N-{[(2S)-1-ethylpyrrolidin-2-yl]methyl}-4-[3-fluoro-6-(pyridin-3-yl)-9H-pyrrolo[2,3-b:5,4-c′]dipyridin-4-yl]benzamide] | 100 to 1000 | < 100 | < 100 | 1000 to 5000 | 100 to 1000
15 | CCN1CCCC(NC(=O)c2ccc(-c3c(F)cnc4[nH]c5cnc(-c6cccnc6)cc5c34)cc2)C1 (stereo not shown) [Example 54, N-(1-ethylpiperidin-3-yl)-4-[3-fluoro-6-(pyridin-3-yl)-9H-pyrrolo[2,3-b:5,4-c′]dipyridin-4-yl]benzamide] | 100 to 1000 | < 100 | < 100 | 100 to 1000 | 100 to 1000
16 | CC1CCCCN1CCNC(=O)c1ccc(-c2c(F)cnc3[nH]c4cnc(-c5cccnc5)cc4c23)cc1 (stereo not shown) [Example 55, 4-[3-fluoro-6-(pyridin-3-yl)-9H-pyrrolo[2,3-b:5,4-c′]dipyridin-4-yl]-N-[2-(2-methylpiperidin-1-yl)ethyl]benzamide] | 100 to 1000 | < 100 | < 100 | 100 to 1000 | 100 to 1000
17 | N[C@@H]1CCCC[C@H]1NC(=O)c1ccc(-c2c(F)cnc3[nH]c4cnc(-c5cccnc5)cc4c23)cc1 [Example 83, N-[(1R,2R)-2-aminocyclohexyl]-4-[3-fluoro-6-(pyridin-3-yl)-9H-pyrrolo[2,3-b:5,4-c′]dipyridin-4-yl]benzamide] | < 100 | < 100 | < 100 |  | 
18 | N[C@H]1CCC[C@@H]1NC(=O)c1ccc(-c2c(F)cnc3[nH]c4cnc(-c5cccnc5)cc4c23)cc1 [Example 85, N-[(1S,2S)-2-aminocyclopentyl]-4-[3-fluoro-6-(pyridin-3-yl)-9H-pyrrolo[2,3-b:5,4-c′]dipyridin-4-yl]benzamide] | < 100 | < 100 | < 100 |  | 
19 | N[C@@H]1CCC[C@H]1NC(=O)c1ccc(-c2c(F)cnc3[nH]c4cnc(-c5cccnc5)cc4c23)cc1 [Example 86, N-[(1R,2R)-2-aminocyclopentyl]-4-[3-fluoro-6-(pyridin-3-yl)-9H-pyrrolo[2,3-b:5,4-c′]dipyridin-4-yl]benzamide] | < 100 | < 100 | < 100 |  | 
20 | CN(C)CCNC(=O)c1ccc(-c2c(F)cnc3[nH]c4cnc(-c5cccnc5)cc4c23)cn1 [Example 112, N-[2-(dimethylamino)ethyl]-5-[3-fluoro-6-(pyridin-3-yl)-9H-pyrrolo[2,3-b:5,4-c′]dipyridin-4-yl]pyridine-2-carboxamide] | 1000 to 5000 | 100 to 1000 | 100 to 1000 |  | 
21 | CN(C)CCNC(=O)c1ccc(-c2c(F)cnc3[nH]c4cnc(-c5cccnc5)cc4c23)cc1F [Example 113, N-[2-(dimethylamino)ethyl]-2-fluoro-4-[3-fluoro-6-(pyridin-3-yl)-9H-pyrrolo[2,3-b:5,4-c′]dipyridin-4-yl]benzamide] | 100 to 1000 | < 100 | < 100 |  | 
